According to article PMC10533412, “Phosphoantigens glue butyrophilin 3A1 and 2A1 to activate Vγ9Vδ2 T cells” (Nature, 2023):

Experiments:
[1] = biological target: T1, BTN2A1 B30.2–BTN3A1 B30.2 (Homo sapiens, UniProt O00481+Q7KYR7, R449A/R469A); assay: ITC: BTN2A1 B30.2 (and mutants) binding to BTN3A1 B30.2 in the presence of pAg
T1 construct: The BTN3A1 B30.2 domain was expressed and purified as described previously; 6xHis; made in house; host or cells: Escherichia coli BL21 (DE3) for BTN2A1 B30.2
Procedure: (§1) ITC binding fits were calculated using MicroCal Analysis software.
For the experiments testing the binding of BTN2A1/BTN2A2 B30.2 domain (including their mutants) to the BTN3A1 B30.2 domain with or without HMBPP, BTN3A1 B30.2 (100 µM) and HMBPP (300 µM) were incubated in the buffer at a 1:3 ratio and loaded into the sample cell, and the injection syringe was filled with the buffer containing 1 mM BTN2A1/BTN2A2 B30.2 (including their mutants).

[2] = system: VpBTN2 BFI–VpBTN3 BFI; assay: ITC: VpBTN2 BFI binding to VpBTN3 BFI in the presence of pAg; design: species or system alpaca (Vicugna pacos)
Procedure: as §1
(§2) ITC experiments of HMBPP, DMAPP or IPP binding to the VpBTN3 BFI (or the preconditioned VpBTN3 BFI and VpBTN2 BFI complex) and VpBTN2 BFI (or VpBTN1 BFI) binding to VpBTN3 BFI in the presence of HMBPP, DMAPP or IPP were performed according to the same procedures as for the BTN3A1 B30.2 and BTN2A1 B30.2.

[3] = system: VpBTN1 BFI–VpBTN3 BFI; assay: ITC: VpBTN1 BFI binding to VpBTN3 BFI in the presence of pAg; design: species or system alpaca (Vicugna pacos)
Procedure: ITC experiments were performed using the MicroCal PEAQ-ITC instrument (GE Healthcare) at 25 °C. We used an initial injection of 0.4 μl followed by 19 injections (2 µl each) at 150 s time intervals. ITC binding fits were calculated using MicroCal Analysis software. The samples were prepared using a buffer (20 mM HEPES pH 7.5, 150 mM NaCl).
as §2

[4] = system: MIA PaCa-2 cells; assay: AFM-SCFS binding force between a Vγ9Vδ2 T cell and a MIA PaCa-2 cell; format: cell-based, human; design: binding force, Mean, Fig. 6b / binding force, Median, Fig. 6b: unit not given here
Procedure: The AFM-SCFS analysis procedure was performed using the JPK CellHesion unit as previously described, and closely followed our previously reported protocol for APCs[4]. […] The glass disks were quickly transferred to an AFM adapter with immediate addition of 1 ml of fresh medium (DMEM: 10% FBS and 1% penicillin–streptomycin). […] The raw data were normalized to the background readings. Blank readings for each set of affinity measurements (Vγ9Vδ2 T cells touching the glass surface) were collected immediately before each assay to perform background subtraction. All data were analysed using the JPK image processing software. […] The following steps were the same as described above.

[5] = biological target: T2, BTN2A1 B30.2–BTN3A1 B30.2 (Homo sapiens, UniProt O00481+Q7KYR7); assay: SEC–MALS of BTN2A1 B30.2–BTN3A1 B30.2 with or without HMBPP; conditions: listed as HMBPP
T2 construct: The BTN3A1 B30.2 domain was expressed and purified as described previously; 6xHis; made in house; host or cells: Escherichia coli BL21 (DE3) for BTN2A1 B30.2
Procedure: SEC–MALS experiments were performed using the Wyatt Dawn Heleos II multiangle light-scattering detector (Wyatt Technology) coupled to an AKTA Purifier UPC10 FPLC protein purification system and the Superdex 200 size-exclusion column (GE Healthcare). Protein molecular masses of the individual peaks observed in the size-exclusion chromatograms were analysed by static light scattering in conjunction with their corresponding refractive indices, using an online refractometer connected downstream of the static light scattering detector (Wyatt Optilab rEX). The proteins were prepared at 5 mg ml^−1 in a buffer (20 mM HEPES pH 7.5, 150 mM NaCl). HMBPP was prepared in 0.5 mM. The experiments were performed with a running buffer (20 mM HEPES pH 7.5, 150 mM NaCl) at a flow rate of 0.5 ml min^−1. A standard value of the refractive index, dn/dc = 0.185 ml g^−1, was used for all proteins.

[6] = biological target: T2, BTN2A1 B30.2–BTN3A1 B30.2; assay: Sedimentation velocity AUC of BTN2A1 B30.2 and BTN3A1 B30.2 with or without HMBPP; conditions: SV-AUC
Procedure: Sedimentation experiments were performed at 20 °C and 45,000 rpm on the Beckman Coulter ProteomeLab XL-I analytical ultracentrifuge according to standard protocols. All of the samples were prepared in the buffer (20 mM HEPES pH 7.5, 150 mM NaCl) and inserted into 12 mm (or 3 mm) Epon centerpieces.

[7] = 2A1-KO cells + HMBPP, 31 values
[8] = 2A1ΔB30.2 cells + HMBPP, 39 values

T2 sequence (O00481 322-513 limits assumed): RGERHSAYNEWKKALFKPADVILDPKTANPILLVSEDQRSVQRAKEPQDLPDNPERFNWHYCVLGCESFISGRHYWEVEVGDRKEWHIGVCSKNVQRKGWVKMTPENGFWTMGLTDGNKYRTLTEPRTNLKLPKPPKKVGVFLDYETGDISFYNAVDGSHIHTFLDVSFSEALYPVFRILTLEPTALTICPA
T2 sequence (Q7KYR7 316-527 limits assumed): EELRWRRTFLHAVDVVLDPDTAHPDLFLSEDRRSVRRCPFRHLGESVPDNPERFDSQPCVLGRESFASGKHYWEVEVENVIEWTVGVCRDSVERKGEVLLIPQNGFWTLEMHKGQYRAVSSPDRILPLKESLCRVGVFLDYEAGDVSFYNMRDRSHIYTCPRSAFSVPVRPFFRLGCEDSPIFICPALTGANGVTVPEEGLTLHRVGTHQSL
T1 sequence (O00481 322-513): as the sequence (O00481 322-513 limits assumed) above
T1 sequence (Q7KYR7 316-527 R449A/R469A): as the sequence (Q7KYR7 316-527 limits assumed) above, with R134A, R154A counted along it

`C/C(=C\COP(=O)(O)OP(=O)(O)O)CO` [Compound 1, (E)-4-hydroxy-3-methylbut-2-en-1-yl diphosphate] was tested, and the “Binding of 2A1 B30.2 R449A/R469A to 3A1 B30.2 in the presence of HMBPP” value [1] was “does not bind”, the “Binding of VpBTN2 mutants (R475A, T508M and V509A) to VpBTN3 in the presence of HMBPP” value [2] was “abolished its binding” and the “VpBTN1 binding to VpBTN3 in the presence of pAg” value [3] was “does not bind”. The “binding force, Mean, Fig. 6b” value [4, 7] was 767.7, the “binding force, Median, Fig. 6b” value [4, 7] was 745 and the “binding force, Mean, Fig. 6b” value ([4]; 2A1 cells + HMBPP, 31 values) was 1509. For the same compound, the “binding force, Median, Fig. 6b” value ([4]; 2A1 cells + HMBPP, 31 values) was 1510, the “binding force, Mean, Fig. 6b” value [4, 8] was 594.3 and the “binding force, Median, Fig. 6b” value [4, 8] was 585. The “Binding force between a Vγ9Vδ2 T cell and a MIA PaCa-2 cell” value ([4]; after HMBPP treatment (1 µM, 4 h), untreated 558 pN) was 1,554 pN, the “Molecular mass of BTN2A1 B30.2–BTN3A1 B30.2 oligomer formed on addition of HMBPP (trimer)” value [5] was 78.7 kDa and the “Molecular mass of BTN2A1 B30.2–BTN3A1 B30.2 oligomer formed on addition of HMBPP (tetramer)” value [6] was 94.9 kDa.
